The subject of one data set is Cedia DAU. The following applies: cited from earlier work.
For a further data set, the system named is Emit II Plus Monoclonal. The following applies: cited from earlier work.
Data set [1] deals with antiserum raised to immunogen 7 (IgG fraction). Nature of the data set: MDMA competitive ELISA (microtiter plate). The format is binding, sheep. To be noted: for IC50 / % CR (cross-reactivity = IC50MDMA/IC50CR x 100): Hapten 7-HRP; for % CR (cross-reactivity = IC50MDMA/IC50CR x 100): relative to MDMA 100; for level of cross-reactivity of the MDMA assays (in words): summary of Table 2. The protocol: An aqueous solution of the immunogen prepared in Example 8 was formulated with Freund's Complete Adjuvant (FCA) to form an emulsion consisting of 2 mg/ml immunogen in 50% (v/v) FCA. Two sheep were immunised with this emulsion, 0.25 ml being subcutaneously injected at each of 4 sites in the flank of each animal. Subsequent immunisations (boosts) contained 1 mg/ml immunogen emulsified in 50% (v/v) Freund's Incomplete Adjuvant (FIA) and were administered in the same manner at monthly intervals for 1 year. Blood sampling took place 7 to 14 days after each boost. Each sample was processed to produce antiserum that was further purified by caprylic acid and ammonium sulfate precipitation to yield an immunoglobulin G (IgG) fraction. The IgG fraction was evaluated by competitive microtiter plate assay, as described below.
The wells of an enhanced binding 96 well polystyrene microtiter plate were coated with the IgG fraction of the antiserum raised to Immunogen 7 (Example 8), diluted in 10 mM Tris, pH8.5 (125 μl/well). The appropriate antibody coating dilution was determined using standard ELISA chequerboard techniques. The plate was incubated for 2 hours at 37° C., washed 4 times with Tris buffered saline containing Tween 20 (TBST) and tapped dry. Standard solutions of MDMA were prepared in TBST at 0, 1, 10, 50, 100, 250, 500 and 1000 ng/ml and 25 μl of each was added to the appropriate wells (FIG. 2). Conjugates (detection reagents)-hapten 7-HRP (Example 9) and hapten 10-HRP (Example 12)—were diluted in Tris buffer, pH7.2, containing EDTA, D-mannitol, sucrose, thimerosal and BSA, appropriate dilutions being determined by standard ELISA chequerboard techniques, and 100 μl of each was added to the appropriate wells (FIG. 2). The plate was incubated at 37° C. for 2 hours. Excess unbound conjugate was removed by washing 6 times over a 10 minute period with TBST.
125 μl of tetramethylbenzidine (TMB) substrate solution was added to each well of the plate which was then incubated for 15 to 20 minutes in the dark at room temperature. The reaction was terminated by addition of 125 μl 0.2 M H2SO4 to each well. The absorbance was then measured at 450 nm using a microtiter plate reader.
In order to determine the specificity of the MDMA competitive ELISAs, standard solutions of potential cross-reactants MDEA, MDA, d-amphetamine, (+)-methamphetamine, (+)-ephedrine, (−)-ephedrine, (+)-pseudoephedrine, (−)-pseudoephedrine and 1-amphetamine were prepared in TBST at 0, 500, 1000, 5000, 10000, 25000, 50000 and 100000 ng/ml. Employing each series of standards in the MDMA competitive ELISAs, calibration curves were generated and these were used to determine the cross-reactivity of the immunoassays with these drugs. The results of this study are presented in Table 2, cross-reactivity being calculated according to the following formula: % CR=IC50MDMA/IC50CR×100
Where % CR is the percentage cross-reactivity, IC50MDMA is the concentration of MDMA that causes 50% displacement of signal and IC50CR is the concentration of potential cross-reactant, for which % CR is being evaluated, that causes 50% displacement of signal.

The next data set relates to Cozart MDMA EIA. The following applies: cited from earlier work; for cross-reactivity, Cozart MDMA: recalculated relative to 100% for MDMA; for cross-reactivity, Cozart MDMA EIA: compared to 100% for MDMA.
In data set [2] the test system is Cozart methamphetamine EIA. To be noted: cited from earlier work; for cross-reactivity, Cozart Methamphetamine: recalculated relative to 100% for MDMA; for cross-reactivity, Cozart methamphetamine EIA: compared to 100% for methamphetamine.
A further data set has as its system Cozart Amphetamine. To be noted: recalculated relative to 100% for MDMA; cited from earlier work.
The test system of data set [3] is Cozart Methamphetamine and MDMA. To be noted: cited from earlier work; for cross-reactivity, Cozart Methamphetamine and MDMA: recalculated relative to 100% for MDMA.
The conditions of data set [4]: in vivo; cited from earlier work.
Setting [5] is: recalculated relative to 100% for MDMA.

≈ marks a conversion by molar mass, not a printed value. Read-outs that look alike come from different tables or passages of the source. Bounds are passed on as bounds.

`CC(N)Cc1ccccc1` (racemic) [D,L-Amphetamine]: in the data set with Cedia DAU (setting [5]), the “cross-reactivity, CEDIA” value is 84.1%. The “cross-reactivity, Emit” value in the data set on Emit II Plus Monoclonal (setting [5]) was 545.6%.

Take `CN[C@@H](C)Cc1ccccc1` (racemic) [D,L-Methamphetamine]: in the data set on Cedia DAU (setting [5]), the “cross-reactivity, CEDIA” value is on record as 94.25%. The “cross-reactivity, Emit” value in the data set with Emit II Plus Monoclonal (setting [5]) is 699.7%.

As for `CN[C@H](C)[C@@H](O)c1ccccc1` [(+)-Ephedrine], in data set [1] (Trial 1), the IC50 was more than 100 µg/mL and the “% CR (cross-reactivity = IC50MDMA/IC50CR x 100)” value (“% CR” for short) is less than 0.017%.

Consider `CN[C@@H](C)[C@H](O)c1ccccc1` [(−)-Ephedrine], for which, in data set [1] (Trial 1), the half-inhibitory concentration (IC50) was more than 100 µg/mL and the “% CR” value is recorded as less than 0.017%.

For `C[C@H](N)Cc1ccccc1` [D-Amphetamine], the “cross-reactivity, Cozart MDMA” value in the data set with Cozart MDMA EIA is 0.2–0.43%. Further, the “cross-reactivity, Cozart Methamphetamine” value in data set [2] is listed as 1%. The “cross-reactivity, Cozart Amphetamine” value with Cozart Amphetamine was 1,428%. Moreover, the “cross-reactivity, CEDIA” value in the data set on Cedia DAU (setting [5]) was 146.5%. In addition, the “cross-reactivity, Cozart Methamphetamine and MDMA” value in data set [3] is on record as 1.52%. Also, in data set [1] (Trial 1), the concentration for half-maximal inhibition (IC50) stood at 52.199 µg/mL (≈ 386 µM) and the “% CR” value turned out to be 0.03%. Besides, the “level of cross-reactivity of the MDMA assays (in words)” value (shortened to “level”) in data set [1] is recorded as “very low levels of cross-reactivity”. For the same compound, in the data set on Emit II Plus Monoclonal (setting [5]), the “cross-reactivity, Emit” value was 917%.

Turning to `CN[C@@H](C)Cc1ccccc1` [D-Methamphetamine], in the data set with Cozart MDMA EIA, the “cross-reactivity, Cozart MDMA EIA” value is 52–80% and the “cross-reactivity, Cozart MDMA” value is reported as 52–80%. In addition, the “cross-reactivity, Cozart Methamphetamine” value in data set [2] is recorded as 10%. Besides, the “cross-reactivity, CEDIA” value with Cedia DAU (setting [5]) was 145%. Also, the “cross-reactivity, Cozart Methamphetamine and MDMA” value in data set [3] is recorded as 217%. Moreover, in data set [1] (Trial 1), the IC50 was 11.138 µg/mL (≈ 74.6 µM) and the “% CR” value is 0.15%. For the same compound, in data set [1], the “level” value is “very low levels of cross-reactivity”.

Take `C[C@@H](N)Cc1ccccc1` [L-Amphetamine]: the “cross-reactivity, CEDIA” value in the data set on Cedia DAU (setting [5]) is listed as 4.35%. In addition, in data set [1] (Trial 2), the 50% inhibitory concentration (IC50) was more than 30 µg/mL and the “% CR” value is reported as less than 0.1%. Also, in the data set on Emit II Plus Monoclonal (setting [5]), the “cross-reactivity, Emit” value is 120.13%.

As to `CN[C@H](C)Cc1ccccc1` [L-Methamphetamine], the “cross-reactivity, Cozart MDMA” value in the data set with Cozart MDMA EIA is reported as 4–22%. Moreover, the “cross-reactivity, CEDIA” value in the data set on Cedia DAU (setting [5]) is recorded as 17.4%. Also, the “cross-reactivity, Emit” value in the data set with Emit II Plus Monoclonal (setting [5]) is recorded as 378.7%.

Regarding `CCC(Cc1ccc2c(c1)OCO2)NC` (centres unmarked) [MBDB, N-methyl-1-(3,4-methylenedioxyphenyl)-2-butamine], in the data set with Cozart MDMA EIA, the “cross-reactivity, Cozart MDMA EIA” value is recorded as 10.4–20% and the “cross-reactivity, Cozart MDMA” value is 10.4–20^ %. Also, in data set [2], the “cross-reactivity, Cozart methamphetamine EIA” value is 150–200% and the “cross-reactivity, Cozart Methamphetamine” value is 15–20%. Also, the “cross-reactivity, Cozart Methamphetamine and MDMA” value in data set [3] is reported as 319–334.2%.

As for `CC(N)Cc1ccc2c(c1)OCO2` (centres unmarked) [MDA, 3,4-methylenedioxyamphetamine], the “cross-reactivity, Cozart MDMA” value with Cozart MDMA EIA is 0.3–0.74%. Besides, the “cross-reactivity, Cozart Methamphetamine” value in data set [2] is 0.36%. Also, the “cross-reactivity, Cozart Amphetamine” value in the data set on Cozart Amphetamine was 208488–304164%. Moreover, in the data set with Cedia DAU (setting [5]), the “cross-reactivity, CEDIA” value is 2.76%. In addition, the “cross-reactivity, Cozart Methamphetamine and MDMA” value in data set [3] is given as 0.87%. In data set [1] (Trial 1), the half-maximal inhibitory concentration (IC50) is 0.3 µg/mL (≈ 1.67 µM) and the “% CR” value amounted to 5.7%. In addition, the “level” value in data set [1] is “lower levels of cross-reactivity”. For the same compound, the “cross-reactivity, Emit” value in the data set with Emit II Plus Monoclonal (setting [5]) was 430.1%.

As to `CCNC(C)Cc1ccc2c(c1)OCO2` (centres unmarked) [MDEA, 3,4-methylenedioxyethylamphetamine], in the data set on Cozart MDMA EIA, the “cross-reactivity, Cozart MDMA” value is 7.0–13.0%. Also, in data set [2], the “cross-reactivity, Cozart methamphetamine EIA” value is recorded as 50–100% and the “cross-reactivity, Cozart Methamphetamine” value is reported as 5–10%. For the same compound, the “cross-reactivity, Cozart Amphetamine” value in the data set on Cozart Amphetamine was 228.5%. Besides, the “cross-reactivity, Cozart Methamphetamine and MDMA” value in data set [3] is given as 10.85%. Besides, in data set [1] (Trial 2), the IC50 stood at 0.015 µg/mL (≈ 0.0724 µM) and the “% CR” value was found to be 200%. In addition, the “level” value in data set [1] is given as “high levels of cross-reactivity”.

As to `CNC(C)Cc1ccc2c(c1)OCO2` (centres unmarked) [MDMA, 3,4-methylenedioxymethamphetamine], the “cross-reactivity, Cozart MDMA” value in the data set on Cozart MDMA EIA is 100%. Moreover, the “cross-reactivity, Cozart methamphetamine EIA” value in data set [2] is 758–1250%. Besides, in data set [2], the “cross-reactivity, Cozart Methamphetamine” value is recorded as 100%. Further, the “excreted unchanged in urine” value in data set [4] is given as 65%. The “cross-reactivity, Cozart Amphetamine” value with Cozart Amphetamine is 100%. Besides, the results for the “cross-reactivity, CEDIA” value with Cedia DAU (compared to 100% for D-methamphetamine) and in the data set on Cedia DAU (setting [5]) were 69% and 100%, respectively. Also, in data set [3] (compared to 100% for methamphetamine), the “cross-reactivity, single Cozart methamphetamine kit” value is reported as 43–49%. Also, in data set [3], the “cross-reactivity, Cozart Methamphetamine and MDMA” value is recorded as 100%. Also, the results for the “IC50 (standard concentration which produces 50% B/B0)” value in data set [1] (Conjugate 7 (hapten 7-HRP)) and in data set [1] (Conjugate 10 (hapten 10-HRP)) were 0.017 µg/mL (≈ 0.088 µM) and 0.0236 µg/mL (≈ 0.122 µM), respectively. For the same compound, the “% B/B0” value was 83.4% in data set [1] (Conjugate 7 (hapten 7-HRP), standard concentration 1 ng/ml); 58% in data set [1] (Conjugate 7 (hapten 7-HRP), standard concentration 10 ng/ml); 34.7% in data set [1] (Conjugate 7 (hapten 7-HRP), standard concentration 50 ng/ml); 26% in data set [1] (Conjugate 7 (hapten 7-HRP), standard concentration 100 ng/ml); 15.9% in data set [1] (Conjugate 7 (hapten 7-HRP), standard concentration 250 ng/ml); 10.9% in data set [1] (Conjugate 7 (hapten 7-HRP), standard concentration 500 ng/ml). Further, the “% B/B0” value in data set [1] (Conjugate 7 (hapten 7-HRP), standard concentration 1000 ng/ml) is 7.5%; in data set [1] (Conjugate 10 (hapten 10-HRP), standard concentration 1 ng/ml) it was 86.1%; in data set [1] (Conjugate 10 (hapten 10-HRP), standard concentration 10 ng/ml), 59.3%; in data set [1] (Conjugate 10 (hapten 10-HRP), standard concentration 50 ng/ml), 34.4%; in data set [1] (Conjugate 10 (hapten 10-HRP), standard concentration 100 ng/ml), 28.3%; in data set [1] (Conjugate 10 (hapten 10-HRP), standard concentration 250 ng/ml), 19.6%. The “% B/B0” value amounted to 14.4% in data set [1] (Conjugate 10 (hapten 10-HRP), standard concentration 500 ng/ml) and 8.97% in data set [1] (Conjugate 10 (hapten 10-HRP), standard concentration 1000 ng/ml). Also, the half-inhibitory concentration (IC50) in data set [1] (Trial 1) worked out at 0.017 µg/mL (≈ 0.088 µM); in data set [1] (Trial 2) it was 0.03 µg/mL (≈ 0.155 µM). Further, the “% CR” value in data set [1] (Trial 1) and in data set [1] (Trial 2) was 100% throughout. The “cross-reactivity, Emit” value is 14.3% in the data set with Emit II Plus Monoclonal (compared to 100% for D,L-methamphetamine) and 100% in the data set with Emit II Plus Monoclonal (setting [5]).

Turning to (+)-Pseudoephedrine, in data set [1] (Trial 1), the IC50 was more than 100 µg/mL and the “% CR” value is given as less than 0.017%.

For the compound (−)-Pseudoephedrine, in data set [1] (Trial 1), the 50% inhibitory concentration (IC50) was more than 100 µg/mL and the “% CR” value is listed as less than 0.017%.

(Values after patent US7217802B2, “Method and kit for detecting, or determining, 3,4-methylenedioxymethamphetamine” (Randox Laboratories Limited, priority 2001, dated 2007).)
